Assay results taken from ChEMBL document CHEMBL1201862, “PubChem BioAssay data set” (2004).
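96-well plates; 48 h exposure; 5 concentrations. Endpoints by linear interpolation between flanking doses. Not reached: highest tested concentration assigned. GI50: concentration for 50% inhibition of growth.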 Activity calls are given as the source filed them. Cut-off read from the data, not from the text of the source: active = GI50 up to about 1.1 µM and inactive = higher.

Legend:
Assay in all cases: NCI anticancer screen, dose series, 48 h
OVCAR-3 = tested on: OVCAR-3
RPMI-8226 = tested on: RPMI-8226
EKVX = tested on: EKVX
DLD-1 = tested on: DLD-1
SNB-78 = tested on: SNB-78
SN12C = tested on: SN12C
UO-31 = tested on: UO-31
COLO 205 = tested on: COLO 205
HOP-92 = tested on: HOP-92
Malme-3M = tested on: Malme-3M
A498 = tested on: A498
SNB-75 = tested on: SNB-75
NCI-H226 = tested on: NCI-H226
SF-539 = tested on: SF-539
OVCAR-5 = tested on: OVCAR-5
TK-10 = tested on: TK-10
NCI-H23 = tested on: NCI-H23
M14 = tested on: M14
OVCAR-8 = tested on: OVCAR-8
U-251 = tested on: U-251
SK-MEL-5 = tested on: SK-MEL-5
UACC-62 = tested on: UACC-62
KM12 = tested on: KM12
HCT-116 = tested on: HCT-116
ACHN = tested on: ACHN
A549 = tested on: A549
NCI-H460 = tested on: NCI-H460
MOLT-4 = tested on: MOLT-4
KM-20L2 = tested on: KM-20L2
HT-29 = tested on: HT-29
SF-268 = tested on: SF-268
HL-60 = tested on: HL-60
DMS-114 = tested on: DMS-114
M19-MEL = tested on: M19-MEL
CAKI-1 = tested on: CAKI-1
OVCAR-4 = tested on: OVCAR-4
CCRF-CEM = tested on: CCRF-CEM
SK-MEL-2 = tested on: SK-MEL-2
LXFL 529 = tested on: LXFL 529
SW-620 = tested on: SW-620
HOP-62 = tested on: HOP-62
K562 = tested on: K562
NCI-H522 = tested on: NCI-H522
LOX IMVI = tested on: LOX IMVI
HCT-15 = tested on: HCT-15
786-0 = tested on: 786-0
HCC 2998 = tested on: HCC 2998
IGROV-1 = tested on: IGROV-1
SNB-19 = tested on: SNB-19
SK-OV-3 = tested on: SK-OV-3
SF-295 = tested on: SF-295
DMS-273 = tested on: DMS-273
UACC-257 = tested on: UACC-257
SK-MEL-28 = tested on: SK-MEL-28
RXF 393 = tested on: RXF 393
HOP-18 = tested on: HOP-18

With `Nc1ccc(C(=O)NN2C(=O)C(Cl)C2c2ccc([N+](=O)[O-])cc2)cc1` (centres undefined) the GI50 (OVCAR-3) was 3.71 µM (inactive), the GI50 (RPMI-8226) was 15.4 µM (inactive) and the GI50 (EKVX) was 7.59 µM (inactive). The GI50 (DLD-1) was 9.79 µM (inactive), the GI50 (SNB-78) was 22.6 µM (inactive) and the GI50 (SN12C) was 14.8 µM (inactive). For the same compound, the GI50 (UO-31) was 15.6 µM (inactive), the GI50 (COLO 205) was 14.8 µM (inactive) and the GI50 (HOP-92) was 17.5 µM (inactive). For the same compound, the GI50 (Malme-3M) was 12.1 µM (inactive), the GI50 (A498) was 20.8 µM (inactive) and the GI50 (SNB-75) was 10.2 µM (inactive). For the same compound, the GI50 (NCI-H226) was 17.2 µM (inactive), the GI50 (SF-539) was 11.6 µM (inactive) and the GI50 (OVCAR-5) was 17.6 µM (inactive). The GI50 (TK-10) was 19.2 µM (inactive), the GI50 (NCI-H23) was 7 µM (inactive) and the GI50 (M14) was 12.9 µM (inactive). The GI50 (OVCAR-8) was 14.6 µM (inactive), the GI50 (U-251) was 2.13 µM (inactive) and the GI50 (SK-MEL-5) was 15.5 µM (inactive). The GI50 (UACC-62) was 8.59 µM (inactive), the GI50 (KM12) was 10.5 µM (inactive) and the GI50 (HCT-116) was 1.63 µM (inactive). For the same compound, the GI50 (ACHN) was 12.3 µM (inactive), the GI50 (A549) was 11.9 µM (inactive) and the GI50 (NCI-H460) was 6.21 µM (inactive). The GI50 (MOLT-4) was 3.2 µM (inactive), the GI50 (KM-20L2) was 13.4 µM (inactive) and the GI50 (HT-29) was 8.87 µM (inactive). For the same compound, the GI50 (SF-268) was 1.99 µM (inactive), the GI50 (HL-60) was 1.92 µM (inactive) and the GI50 (DMS-114) was 2.84 µM (inactive). For the same compound, the GI50 (M19-MEL) was 14.6 µM (inactive), the GI50 (CAKI-1) was 20 µM (inactive) and the GI50 (OVCAR-4) was 12.7 µM (inactive). For the same compound, the GI50 (CCRF-CEM) was 3.54 µM (inactive), the GI50 (SK-MEL-2) was 16.9 µM (inactive) and the GI50 (LXFL 529) was 4.86 µM (inactive). The GI50 (SW-620) was 11.1 µM (inactive), the GI50 (HOP-62) was 11 µM (inactive) and the GI50 (K562) was 9.75 µM (inactive). The GI50 (NCI-H522) was 1.73 µM (inactive), the GI50 (LOX IMVI) was 1.74 µM (inactive) and the GI50 (HCT-15) was 8.05 µM. The GI50 (786-0) was 3.87 µM (inactive), the GI50 (HCC 2998) was 9.08 µM (inactive) and the GI50 (IGROV-1) was 5.31 µM (inactive). The GI50 (SNB-19) was 13.1 µM (inactive), the GI50 (SK-OV-3) was 14.1 µM (inactive) and the GI50 (SF-295) was 13.8 µM (inactive). For the same compound, the GI50 (DMS-273) was 5.62 µM (inactive), the GI50 (UACC-257) was 14.7 µM (inactive) and the GI50 (SK-MEL-28) was 7.23 µM (inactive).

With `CN(C)CCNC(=O)c1cccc2ccc(-c3ccncc3)nc12` the GI50 (OVCAR-3) was 2.78 µM (inactive), the GI50 (EKVX) was 2.47 µM (inactive) and the GI50 (DLD-1) was 2.48 µM (inactive). The GI50 (RXF 393) was 2.36 µM (inactive), the GI50 (SNB-78) was 7.24 µM (inactive) and the GI50 (SN12C) was 1.61 µM (inactive). For the same compound, the GI50 (UO-31) was 1.94 µM (inactive), the GI50 (COLO 205) was 1.3 µM (inactive) and the GI50 (HOP-92) was 2.16 µM (inactive). The GI50 (A498) was 1.3 µM (inactive), the GI50 (SNB-75) was 3.2 µM (inactive) and the GI50 (SF-539) was 1.45 µM (inactive). For the same compound, the GI50 (OVCAR-5) was 1.93 µM (inactive), the GI50 (TK-10) was 2.21 µM (inactive) and the GI50 (NCI-H23) was 1.8 µM (inactive). For the same compound, the GI50 (M14) was 4.11 µM (inactive), the GI50 (OVCAR-8) was 2.26 µM (inactive) and the GI50 (U-251) was 1.63 µM (inactive). For the same compound, the GI50 (SK-MEL-5) was 1.55 µM (inactive), the GI50 (UACC-62) was 1.8 µM (inactive) and the GI50 (KM12) was 3.67 µM (inactive). The GI50 (HCT-116) was 1.27 µM (inactive), the GI50 (ACHN) was 1.17 µM (inactive) and the GI50 (A549) was 0.817 µM (active). The GI50 (NCI-H460) was 0.403 µM (active), the GI50 (MOLT-4) was 0.306 µM (active) and the GI50 (HT-29) was 2.54 µM (inactive). For the same compound, the GI50 (SF-268) was 3.79 µM (inactive), the GI50 (HL-60) was 0.877 µM (active) and the GI50 (DMS-114) was 2.96 µM (inactive). The GI50 (M19-MEL) was 1.89 µM (inactive), the GI50 (CAKI-1) was 1.52 µM (inactive) and the GI50 (OVCAR-4) was 2.79 µM (inactive). For the same compound, the GI50 (CCRF-CEM) was 1.87 µM (inactive), the GI50 (SK-MEL-2) was 4.02 µM (inactive) and the GI50 (SW-620) was 1.33 µM (inactive). The GI50 (HOP-62) was 1.66 µM (inactive), the GI50 (K562) was 2.58 µM (inactive) and the GI50 (LOX IMVI) was 1.39 µM (inactive). The GI50 (HCT-15) was 1.44 µM, the GI50 (786-0) was 2.72 µM (inactive) and the GI50 (HCC 2998) was 1.96 µM (inactive). The GI50 (IGROV-1) was 1.47 µM (inactive), the GI50 (HOP-18) was 3.47 µM (inactive) and the GI50 (SNB-19) was 2.81 µM (inactive). The GI50 (SK-OV-3) was 2.22 µM (inactive), the GI50 (SF-295) was 2.88 µM (inactive) and the GI50 (DMS-273) was 1.1 µM (active). The GI50 (UACC-257) was 2.06 µM (inactive) and the GI50 (SK-MEL-28) was 4.86 µM (inactive).
